From US11713327B2, “Heteroaryl heterocyclyl compounds for the treatment of autoimmune disease” (Hoffmann-La Roche Inc., priority 2018, dated 2023)

Assays:
[1] = Human microsome stability assay; format: in vitro ADME; details: 1 μM test compound, 0.5 mg/mL liver microsomal protein
Method: Human Microsome Stability Assay
The human microsomal stability assay is used for early assessment of metabolic stability of a test compound in human liver microsomes.
Human liver microsomes (Cat. NO.: 452117, Corning, USA; Cat. NO.: H2610, Xenotech, USA) were preincubated with test compound for 10 minutes at 37° C. in 100 mM potassium phosphate buffer, pH 7.4. The reactions were initiated by adding NADPH regenerating system. The final incubation mixtures contained 1 μM test compound, 0.5 mg/mL liver microsomal protein, 1 mM MgCl2, 1 mM NADP, 1 unit/mL isocitric dehydrogenase and 6 mM isocitric acid in 100 mM potassium phosphate buffer, pH 7.4. After incubation times of 0, 3, 6, 9, 15 and 30 minutes at 37° C., 300 μL of cold acetonitrile (including internal standard) was added to 100 μL incubation mixture to terminate the reaction. Following precipitation and centrifugation, the amount of compound remaining in the samples were determined by LC-MS/MS. Controls of no NADPH regenerating system at zero and 30 minutes were also prepared and analyzed.

hERG K+ channels = hERG K+ channels (Homo sapiens (Human), UniProt Q12809); assay: hERG channel inhibition assay (patch-clamp, CHOhERG cells); format: cell-based; details: for safety window (hERG IC20/TLR7/8/9 IC50): compared to the compounds of this invention; for hERG IC20/TLR7 IC50 / hERG IC20/TLR9 IC50: safety ratio
Method: hERG Channel Inhibition Assay:
The hERG K^+ channels were cloned in humans and stably expressed in a CHO (Chinese hamster ovary) cell line. CHOhERG cells were used for patch-clamp (voltage-clamp, whole-cell) experiments. Cells were stimulated by a voltage pattern to activate hERG channels and conduct IKhERG currents (rapid delayed outward rectifier potassium current of the hERG channel). After the cells were stabilized for a few minutes, the amplitude and kinetics of IKhERG were recorded at a stimulation frequency of 0.1 Hz (6 bpm). Thereafter, the test compound was added to the preparation at increasing concentrations. For each concentration, an attempt was made to reach a steady-state effect, usually, this was achieved within 3-10 min at which time the next highest concentration was applied. The amplitude and kinetics of IKhERG are recorded in each concentration of the drug which were compared to the control values (taken as 100%). (references: Redfern W S, Carlsson L, Davis A S, Lynch W G, MacKenzie I, Palethorpe S, Siegl P K, Strang I, Sullivan A T, Wallis R, Camm A J, Hammond T G. 2003; Relationships between preclinical cardiac electrophysiology, clinical QT interval prolongation and torsade de pointes for a broad range of drugs: evidence for a provisional safety margin in drug development. Cardiovasc. Res. 58:32-45, Sanguinetti M C, Tristani-Firouzi M. 2006; hERG potassium channels and cardiac arrhythmia. Nature 440:463-469, Webster R, Leishman D, Walker D. 2002; Towards a drug concentration effect relationship for QT prolongation and torsades de pointes. Curr. Opin. Drug Discov. Devel. 5:116-26).

Chain of hERG K+ channels (Q12809 whole entry): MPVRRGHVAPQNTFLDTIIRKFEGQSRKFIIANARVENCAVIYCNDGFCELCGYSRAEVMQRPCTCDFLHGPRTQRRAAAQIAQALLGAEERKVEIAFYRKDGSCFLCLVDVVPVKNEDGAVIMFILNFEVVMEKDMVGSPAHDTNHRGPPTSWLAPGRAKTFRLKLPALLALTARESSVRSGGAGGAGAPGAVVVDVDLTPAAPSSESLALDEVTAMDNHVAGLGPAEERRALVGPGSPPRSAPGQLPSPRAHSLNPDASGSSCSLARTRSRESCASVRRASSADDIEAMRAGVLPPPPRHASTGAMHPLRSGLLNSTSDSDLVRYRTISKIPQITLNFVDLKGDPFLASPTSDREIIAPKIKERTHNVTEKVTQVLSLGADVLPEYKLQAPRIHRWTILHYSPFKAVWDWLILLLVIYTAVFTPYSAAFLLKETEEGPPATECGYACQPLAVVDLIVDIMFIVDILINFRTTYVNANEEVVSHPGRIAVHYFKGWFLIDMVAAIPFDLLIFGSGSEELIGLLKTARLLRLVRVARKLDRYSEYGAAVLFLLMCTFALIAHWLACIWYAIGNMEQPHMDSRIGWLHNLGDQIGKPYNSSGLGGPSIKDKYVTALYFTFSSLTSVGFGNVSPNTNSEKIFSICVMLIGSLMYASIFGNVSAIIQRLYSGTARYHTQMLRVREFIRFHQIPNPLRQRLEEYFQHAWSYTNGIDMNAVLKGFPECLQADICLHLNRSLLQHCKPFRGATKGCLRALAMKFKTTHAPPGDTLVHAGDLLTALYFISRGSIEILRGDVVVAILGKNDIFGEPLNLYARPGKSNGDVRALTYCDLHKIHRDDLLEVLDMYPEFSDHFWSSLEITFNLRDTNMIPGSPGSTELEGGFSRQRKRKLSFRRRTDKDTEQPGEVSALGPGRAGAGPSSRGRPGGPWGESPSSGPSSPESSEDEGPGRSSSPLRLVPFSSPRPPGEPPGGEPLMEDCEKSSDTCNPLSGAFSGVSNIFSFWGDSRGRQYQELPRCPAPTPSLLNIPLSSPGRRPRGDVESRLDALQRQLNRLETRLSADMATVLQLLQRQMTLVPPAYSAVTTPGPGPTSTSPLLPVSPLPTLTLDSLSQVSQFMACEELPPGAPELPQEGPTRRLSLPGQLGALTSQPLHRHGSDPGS

Clearance of Human microsome [1]	SMILES	safety window (hERG IC20/TLR7/8/9 IC50) (hERG K+ channels)	hERG IC20/TLR7 IC50 (hERG K+ channels)	hERG IC20/TLR9 IC50 (hERG K+ channels)
6.32 mL/min/kg	[2H]c1ccc2c(N3C[C@H](CN4CCN(c5ccc6c(n5)CN[C@H]6C)CC4)O[C@H](C)C3)ccc(C#N)c2n1 [Example 99, 2-deuterio-5-[(2R,6S)-2-methyl-6-[[4-[(5S)-5-methyl-6,7-dihydro-5H-pyrrolo[3,4-b]pyridin-2-yl]piperazin-1-yl]methyl]morpholin-4-yl]quinoline-8-carbonitrile]			
	C[C@@H]1CN(c2ccc(C#N)c3ncccc23)C[C@H](CN2CCN(c3ccncc3)CC2)O1 [ER-888286]	much narrower safety window	0.3	0.2
	COc1ccc(N2CCN(C[C@H]3CN(c4ccc(C#N)c5ncccc45)C[C@@H](C)O3)CC2)cc1 [Example R1, 5-[(2S,6R)-2-[[4-(4-methoxyphenyl)piperazin-1-yl]methyl]-6-methyl-morpholin-4-yl]quinoline-8-carbonitrile]	much narrower safety window	9.3	0.1
6.23 mL/min/kg	[2H]c1nc2c(C#N)ccc(N3C[C@H](CN4CCN(c5ccc6c(n5)CN[C@H]6C)CC4)O[C@H](C)C3)c2nc1[2H] [Example 96, 2,3-dideuterio-8-[(2R,6S)-2-methyl-6-[[4-[(5S)-5-methyl-6,7-dihydro-5H-pyrrolo[3,4-b]pyridin-2-yl]piperazin-1-yl]methyl]morpholin-4-yl]quinoxaline-5-carbonitrile]			
	C[C@@H]1CN(c2ccc(C#N)c3ncccc23)C[C@H](CN2CCN(c3ccccc3)CC2)O1 [ER-887258]	much narrower safety window	8.1	0.3
	C[C@@H]1CN(c2ccc(C#N)c3ncccc23)C[C@H](CN2CCN(c3ccccn3)CC2)O1 [ER-888285]	much narrower safety window	8.4	0.5
7.13 mL/min/kg	[2H]c1nc2c(C#N)ccc(N3C[C@H](CN4CCN(c5cc6c(cn5)[C@@H](C)NCC6)CC4)O[C@H](C)C3)c2nc1[2H] [Example 95, 2,3-dideuterio-8-[(2R,6S)-2-methyl-6-[[4-[(8R)-8-methyl-5,6,7,8-tetrahydro-2,7-naphthyridin-3-yl]piperazin-1-yl]methyl]morpholin-4-yl]quinoxaline-5-carbonitrile]			
6.15 mL/min/kg	[2H]c1nc2c(C#N)ccc(N3C[C@H](CN4CCN(c5ccc6c(n5)CN[C@@H]6C)CC4)O[C@H](C)C3)c2nc1[2H] [Example 97, 2,3-dideuterio-8-[(2R,6S)-2-methyl-6-[[4-[(5R)-5-methyl-6,7-dihydro-5H-pyrrolo[3,4-b]pyridin-2-yl]piperazin-1-yl]methyl]morpholin-4-yl]quinoxaline-5-carbonitrile]			
8.02 mL/min/kg	[2H]c1ccc2c(N3C[C@H](CN4CCN(c5ccc6c(n5)CN[C@@H]6C)CC4)O[C@H](C)C3)ccc(C#N)c2n1 [Example 98, 2-deuterio-5-[(2R,6S)-2-methyl-6-[[4-[(5R)-5-methyl-6,7-dihydro-5H-pyrrolo[3,4-b]pyridin-2-yl]piperazin-1-yl]methyl]morpholin-4-yl]quinoline-8-carbonitrile]			
	C[C@@H]1CN(c2ccc(C#N)c3ncccc23)C[C@H](CN2CCN(c3ccc(Cl)cc3)CC2)O1 [Example R2, 5-[(2S,6R)-2-[[4-(4-chlorophenyl)piperazin-1-yl]methyl]-6-methyl-morpholin-4-yl]quinoline-8-carbonitrile]	much narrower safety window	1.3	0.04
	C[C@@H]1CN(c2ccc(C#N)c3ncccc23)C[C@H](CN2CC3(C2)CN(c2cnc4c(n2)CCNC4)CCO3)O1 [Example 50, 5-[(2R,6S)-2-methyl-6-[[8-(5,6,7,8-tetrahydropyrido[3,4-b]pyrazin-2-yl)-5-oxa-2,8-diazaspiro[3.5]nonan-2-yl]methyl]morpholin-4-yl]quinoline-8-carbonitrile]			>144.9
6.15 mL/min/kg	C[C@@H]1CN(c2ccc(C#N)c3ncccc23)C[C@H](CN2CCN(c3ccc4c(n3)CN[C@H]4C)CC2)O1 [Example 63, 5-[(2R,6S)-2-methyl-6-[[4-[(5S)-5-methyl-6,7-dihydro-5H-pyrrolo[3,4-b]pyridin-2-yl]piperazin-1-yl]methyl]morpholin-4-yl]quinoline-8-carbonitrile]			
